Measured values: USRE42376E1, “Substituted 3-cyanoquinolines” (Wyeth Holdings Corporation, priority 1998, dated 2011)
≈ marks a conversion by molar mass, not a printed value. Structures can show the parent of a compound that is named as a salt.

Legend:
[1] = target: Epithelial Cell Kinase (ECK) (Homo sapiens, UniProt P29317); test: Inhibition of Epithelial Cell Kinase (ECK); type: biochemical
Experimental: In this standard pharmacological test procedure, a biotinylated peptide substrate is first immobilized on neutravidin-coated microtiter plates. The test drug, the Epithelial Cell Kinase (ECK), Mg^++, sodium vanadate (a protein tyrosine phosphatase inhibitor), and an appropriate buffer to maintain pH (7.2) are then added to the immobilized substrate-containing microtiter wells. ATP is then added to initiate phosphorylation. After incubation, the assay plates are washed with a suitable buffer leaving behind phosphorylated peptide which is exposed to horse radish peroxidase (HRP)-conjugated anti-phosphotyrosine monoclonal antibody. The antibody-treated plates are washed again and the HRP activity in individual wells is quantified as a reflection of degree of substrate phosphorylation. […] Multiple entries for a given compound indication it was tested multiple times.

[2] = target: T1, recombinant human MEK 1 (MAPKK) and human ERK2 (MAPK) (Homo sapiens, UniProt P28482+Q02750); test: Mitogen Activated Protein Kinase (MAPK) coupled assay (Mek-Erk); type: biochemical; settings: separate entries = repeat tests
T1 construct: The recombinant enzymes used were prepared as GST fusion proteins of human ERK 2 and human MEK 1
T1 sequence (Q02750 whole entry, the tested form may be a part): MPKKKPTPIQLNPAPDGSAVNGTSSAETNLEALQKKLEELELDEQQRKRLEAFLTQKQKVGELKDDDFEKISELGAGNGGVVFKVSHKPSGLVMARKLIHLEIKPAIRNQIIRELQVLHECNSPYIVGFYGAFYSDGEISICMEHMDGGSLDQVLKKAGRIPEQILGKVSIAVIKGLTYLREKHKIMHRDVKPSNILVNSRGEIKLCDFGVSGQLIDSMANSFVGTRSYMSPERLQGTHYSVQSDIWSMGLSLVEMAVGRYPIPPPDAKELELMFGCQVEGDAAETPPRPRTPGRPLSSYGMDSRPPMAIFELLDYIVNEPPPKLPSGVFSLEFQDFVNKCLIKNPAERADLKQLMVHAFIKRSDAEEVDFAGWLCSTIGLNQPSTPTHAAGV
T1 sequence (P28482 2-360): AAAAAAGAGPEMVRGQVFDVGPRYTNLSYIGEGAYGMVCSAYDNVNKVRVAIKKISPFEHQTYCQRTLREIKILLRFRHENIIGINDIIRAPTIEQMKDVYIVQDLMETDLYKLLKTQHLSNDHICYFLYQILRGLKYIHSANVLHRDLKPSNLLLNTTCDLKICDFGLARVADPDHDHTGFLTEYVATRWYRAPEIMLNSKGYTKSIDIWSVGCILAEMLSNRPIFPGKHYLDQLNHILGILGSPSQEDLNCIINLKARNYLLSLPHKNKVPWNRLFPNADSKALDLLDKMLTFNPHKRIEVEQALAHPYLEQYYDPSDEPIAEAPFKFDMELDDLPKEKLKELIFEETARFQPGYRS
Experimental: To evaluate inhibitors of the MAP (mitogen activated protein) kinase a two component coupled standard pharmacological test procedure, which measures phosphorylation of a serine/threonine residue in an appropriate sequence in the substrate in the presence and absence of a putative inhibitor, was used. Recombinant human MEK 1 (MAPKK) was first used to activate recombinant human ERK2 (MAPK) and the activated MAPK (ERK) was incubated with substrate (MBP peptide or MYC peptide) in the presence of ATP, Mg^+2 and radiolabeled ^33P ATP. The phosphorylated peptide was captured on a P 81 phosphocellulose filter (paper filter or embedded in microtiter plate) washed and counted by scintillation methods. […]
The reaction was run as follows in 50 mM Tris kinase buffer, pH 7.4 in a reaction volume of 50 ul. […] The filters or MTP were briefly air dried before addition of scintillant and samples were counted in the appropriate scintillation counter set up for reading ^33P isotope. […]
The raw data was captured as cpm. […] Mean cpm data was tabulated by group and % inhibition by a test compound was calculated as (corrected cpm control-corrected. cpm sample/control) X 100=% inhibition. […] The results obtained for representative compounds of this invention are listed in TABLE 2 where there may be separate entries for the same compound; this is an indication that the compound was evaluated more than one time.

[3] = test system: Human Epidermoid Tumors (A431); test: In vivo inhibition of the growth of human epidermoid tumors (A431) in mice; design: species or system BALB/c nu/nu female mice; settings: for S/T = # of Survivors/# of Treated: Day +28 post tumor staging
Experimental: Human epidernoid carcinoma cells A-431 (American Type Culture Collection, Rockville, Md. #CRL-155) were grown in vitro as described above. A unit of 5×10^6 cells were injected SC into mice. […] Control animals received no drug. […] The % T/C (Tumor/Control) is determined by dividing the relative tumor growth of the treated group by the relative tumor growth of the placebo group and multiplying by 100.

A431 = test: Inhibition of cancer cell growth as measured by cell number, A431; type: cell-based, Human; settings: 48 hours exposure, Sulforhodamine B
Experimental: (§1) Human tumor cell lines were plated in 96-well plates (250 μl/well, 1-6×10^4 cells/ml) in RPMI 1640 medium, containing 5% FBS (Fetal Bovine Serum). […] After 48 hours exposure to test compounds, cells were fixed with trichloroacetic acid, and stained with Sulforhodamine B. After washing with trichloroacetic acid, bound dye was solubilized in 10 mM Tris base and optical density was determined using plate reader. Under conditions of the assay the optical density is proportional to the number of cells in the well. […] The test procedure is described in details by Philip Skehan et. al, J.Natl. Canc. Inst., 82, 1107-1112 (1990). […] Information about some of the cell lines used in these test procedures is available from the American Type Tissue Collection: Cell Lines and Hybridomas, 1994 Reference Guide, 8th Edition.

Her2/3T3 = test: Inhibition of cell growth as measured by cell number, Her2/3T3; type: cell-based; settings: 48 hours exposure, Sulforhodamine B
Experimental: as §1

MDAMB435 = test: Inhibition of cancer cell growth as measured by cell number, MDAMB435; type: cell-based, Human; settings: 48 hours exposure, Sulforhodamine B
Experimental: as §1

SKBR3 = test: Inhibition of cancer cell growth as measured by cell number, SKBR3; type: cell-based, Human; settings: 48 hours exposure, Sulforhodamine B
Experimental: as §1

3T3 = test: Inhibition of cell growth as measured by cell number, 3T3; type: cell-based; settings: 48 hours exposure, Sulforhodamine B
Experimental: as §1

SW620 = test: Inhibition of cancer cell growth as measured by cell number, SW620; type: cell-based, Human; settings: 48 hours exposure, Sulforhodamine B
Experimental: as §1

Chain of Epithelial Cell Kinase (ECK) (P29317 24-976, species assumed): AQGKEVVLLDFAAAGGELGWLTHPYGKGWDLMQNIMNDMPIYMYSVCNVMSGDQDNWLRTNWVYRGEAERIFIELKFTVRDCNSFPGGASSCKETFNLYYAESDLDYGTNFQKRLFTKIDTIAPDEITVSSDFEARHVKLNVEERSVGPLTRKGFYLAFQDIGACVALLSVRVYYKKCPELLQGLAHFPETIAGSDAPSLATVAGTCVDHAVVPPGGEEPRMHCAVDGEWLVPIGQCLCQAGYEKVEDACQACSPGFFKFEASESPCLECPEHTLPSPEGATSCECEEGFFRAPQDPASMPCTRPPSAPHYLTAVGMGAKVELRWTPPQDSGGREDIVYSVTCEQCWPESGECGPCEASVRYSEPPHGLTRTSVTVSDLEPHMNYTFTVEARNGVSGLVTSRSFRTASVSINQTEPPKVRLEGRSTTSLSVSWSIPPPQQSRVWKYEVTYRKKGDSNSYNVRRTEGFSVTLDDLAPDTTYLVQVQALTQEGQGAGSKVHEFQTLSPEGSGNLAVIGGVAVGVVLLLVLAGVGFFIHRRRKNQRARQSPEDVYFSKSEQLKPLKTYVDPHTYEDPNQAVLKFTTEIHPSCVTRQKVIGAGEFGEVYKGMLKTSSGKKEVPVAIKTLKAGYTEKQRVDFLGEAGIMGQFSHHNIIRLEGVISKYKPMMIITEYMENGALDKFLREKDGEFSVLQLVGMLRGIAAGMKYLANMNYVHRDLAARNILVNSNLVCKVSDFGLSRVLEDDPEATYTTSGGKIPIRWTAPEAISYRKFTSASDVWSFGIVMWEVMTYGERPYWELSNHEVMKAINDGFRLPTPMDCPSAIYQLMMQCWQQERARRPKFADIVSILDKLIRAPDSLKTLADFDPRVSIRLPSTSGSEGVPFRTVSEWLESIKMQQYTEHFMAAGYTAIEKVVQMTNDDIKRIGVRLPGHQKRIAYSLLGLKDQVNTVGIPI

For COc1cc2ncc(C#N)c(Nc3ccc(F)c(Cl)c3)c2cc1N1CC1, the melting point was 197 to 199 °C.

In the case of COCCN(CC#CC(=O)Nc1ccc2ncc(C#N)c(Nc3cccc(Br)c3)c2c1)CCOC [Example 75, N-[4-[(3-Bromophenyl)amino]-3-cyano-6-quinolinyl]-4-(bis-(2-methoxyethyl)amino)-2-butynamide], the IC50 [1] is reported as greater than 37.3 µM and the melting point is reported as 98 to 101 °C.

For COCCN(C)CC#CC(=O)Nc1ccc2ncc(C#N)c(Nc3cccc(Br)c3)c2c1 [Example 76, N-[4-[(3-Bromophenyl)amino]-3-cyano-6-quinolinyl]-4-(N-methoxyethyl-N-methylamino)-2-butynamide], the IC50 [1] was greater than 40.6 µM and the melting point was 95 °C (dec.).

Compound C=CCN(C)CC#CC(=O)Nc1ccc2ncc(C#N)c(Nc3cccc(Br)c3)c2c1 [Example 77, N-[4-[(3-Bromophenyl)amino]-3-cyano-6-quinolinyl]-4-(N-allyl-N-methylamino)-2-butynamide] has a melting point of 133 to 135 °C.

Compound COC[C@@H]1CCCN1CC#CC(=O)Nc1ccc2ncc(C#N)c(Nc3cccc(Br)c3)c2c1 [Example 79, 4-((2S)-2-Methoxymethylpyrrolidin-1-yl)but-2-ynoic Acid[4-(3-bromophenylamino)-3-cyanoquinolin-6-yl]amide] has an IC50 [2] of 80 µM and an IC50 [1] greater than 38.6 µM.

Work on CCOc1c(Nc2ccc3ncc(C#N)c(Nc4cccc(Br)c4)c3c2)c(=O)c1=O [Example 85, 4-(3-Bromo-phenylamino)-6-(2-ethoxy-3,4-dioxo-cyclobut-1-enylamino)-quinoline-3-carbonitrile] yielded an IC50 [1] greater than 21.6 µM.

In the case of COCCN(C)CC=CC(=O)Nc1cc2c(Nc3ccc(F)c(Cl)c3)c(C#N)cnc2cc1OC [Example 89, 4-[(2-Methoxy-ethyl)-methyl-amino]-but-2-enoic Acid[4-(3-chloro-4-fluoro-phenylamino)-3-cyano-7-methoxy-quinolin-6-yl]-amide Dihydrochloride], the “S/T = # of Survivors/# of Treated” value ([3]; Table 5, 10 mg/kg/dose PO days 1 through 10) is reported as 4/5, the “S/T = # of Survivors/# of Treated” value ([3]; Table 5, 40 mg/kg/dose PO days 1 through 10) is reported as 5/5 and the “inhibition of tumor growth in vivo (in words)” value ([3]; given orally at 40 mg/Kg and 10 mg/Kg) is reported as “effective inhibitor of tumor growth in vivo”.

In the case of COC[C@@H]1CCCN1CC=CC(=O)Nc1cc2c(Nc3ccc(F)c(Cl)c3)c(C#N)cnc2cc1OC.Cl.Cl [Example 90, (S)-4-(2-Methoxymethyl-pyrrolidin-1-yl)-but-2-enoic Acid[4-(3-chloro-4-fluoro-phenylamino)-3-cyano-7-methoxy-quinolin-6-yl]-amide dihydrochloride], the “IC50 cell growth A431” value (A431) is reported as 0.234 mg/L, the “IC50 cell growth Her2/3T3” value (Her2/3T3) is reported as 0.329 mg/L and the “IC50 cell growth MDAMB435” value (MDAMB435) is reported as 1.74 mg/L. The “IC50 cell growth SKBR3” value (SKBR3) was 0.148 mg/L, the “IC50 cell growth 3T3” value (3T3) was 2.1 mg/L and the “IC50 cell growth SW620” value (SW620) was 1.24 mg/L.

For COc1cc2ncc(C#N)c(Nc3ccc(F)c(Cl)c3)c2cc1NC(=O)C=CCN1CCC2(CC1)OCCO2 [Example 92, 4-(1,4-Dioxa-8-aza-spiro[4.5]dec-8-yl)-but-2-enoic Acid[4-(3-chloro-4-fluoro-phenylamino)-3-cyano-7-methoxy-quinolin-6-yl]-amide], the “IC50 cell growth A431” value (A431) was 0.283 mg/L (≈ 0.513 µM), the “IC50 cell growth Her2/3T3” value (Her2/3T3) was 0.35 mg/L (≈ 0.634 µM) and the “S/T = # of Survivors/# of Treated” value ([3]; Table 4, 10 mg/kg/dose PO days 1 through 10) was 5/5. The “S/T = # of Survivors/# of Treated” value ([3]; Table 4, 40 mg/kg/dose PO days 1 through 10) was 5/5, the “inhibition of tumor growth in vivo (in words)” value ([3]; given orally at 40 mg/Kg) was “effective inhibitor of tumor growth in vivo” and the “IC50 cell growth MDAMB435” value (MDAMB435) was 3.32 mg/L (≈ 6.01 µM). For the same compound, the “IC50 cell growth SKBR3” value (SKBR3) was 0.188 mg/L (≈ 0.341 µM), the “IC50 cell growth 3T3” value (3T3) was 2.79 mg/L (≈ 5.05 µM) and the “IC50 cell growth SW620” value (SW620) was 2.51 mg/L (≈ 4.55 µM).
